Data taken from ChEMBL document CHEMBL5050844 (2019).

Tests used:
[1] = Induction of anti-CD3/CD28 antibodies-stimulated human T cell activation at 1.11 uM assessed fold increase in IFN-gamma secretion measured by ELISA assay; assay type: functional, T cell line
[2] = Induction of anti-CD3 antibodies-stimulated human CD4+ T cell activation at 10 uM assessed fold increase in CD69 expression measured by flow cytometry analysis; assay type: functional, T cell line; note: reference of the scale not given here
[3] = Induction of anti-CD3/CD28 antibodies-stimulated human CD8+ T cell activation at 1.11 uM assessed fold increase in cell proliferation measured by flow cytometry analysis; assay type: functional, T cell line
[4] = Induction of anti-CD3/CD28 antibodies-stimulated human T cell activation at 1.11 uM assessed fold increase in GM-CSF secretion measured by ELISA assay; assay type: functional, T cell line
[5] = Induction of anti-CD3 antibodies-stimulated human T cell activation at 1.11 uM assessed fold increase in GM-CSF secretion measured by ELISA assay; assay type: functional, T cell line; note: reference of the scale not given here
[6] = Induction of anti-CD3 antibodies-stimulated human T cell activation at 10 uM assessed fold increase in GM-CSF secretion measured by ELISA assay; assay type: functional, T cell line; note: reference of the scale not given here
[7] = Induction of activation of human CD56+ CD3- NK cells co-cultured with human K562 cells in 1:1 ratio and assessed as increase in TNF-alpha secretion at 2.5 uM measured by ELISA assay; assay type: functional, Natural killer cell
[8] = test system: B cell; assay: Induction of anti-IgM-stimulated human CD20+ B cell activation at 10 to 1000 uM assessed as increase in CD69 expression measured as mean fluorescence intensity AUC by flow cytometry analysis; assay type: functional, cell-based; conditions: dose 10-1000 µM
[9] = Induction of anti-CD3/CD28 antibodies-stimulated human CD4+ T cell activation at 1.11 uM assessed fold increase in CD69 expression measured by flow cytometry analysis; assay type: functional, T cell line
[10] = Induction of anti-CD3 antibodies-stimulated human exhausted CD4+ T cell activation assessed fold increase in CTLA4 expression measured by flow cytometry analysis; assay type: functional, T cell line; note: reference of the scale not given here
[11] = Induction of allogenic human T cell activation at 3 uM assessed fold increase in cell proliferation; assay type: functional, T cell line
[12] = Induction of activation of human CD56+ CD3- NK cells co-cultured with human K562 cells in 1:1 ratio and assessed as increase in IFN-gamma secretion at 2.5 uM measured by ELISA assay; assay type: functional, Natural killer cell
[13] = Induction of anti-CD3/CD28 antibodies-stimulated human CD8+ T cell activation at 10 uM assessed fold increase in CD69 expression measured by flow cytometry analysis; assay type: functional, T cell line
[14] = Induction of anti-CD3 antibodies-stimulated human exhausted T cell activation assessed fold increase in IL-2 secretion measured by ELISA assay; assay type: functional, T cell line; note: reference of the scale not given here
[15] = Induction of anti-CD3 antibodies-stimulated human CD8+ T cell activation at 10 uM assessed fold increase in CD69 expression measured by flow cytometry analysis; assay type: functional, T cell line; note: reference of the scale not given here
[16] = Induction of activation of human CD56+ CD3- NK cells co-cultured with human K562 cells in 1:1 ratio and assessed as increase in TNF-alpha secretion at 10 uM measured by ELISA assay; assay type: functional, Natural killer cell
[17] = Induction of activation of human CD56+ CD3- NK cells co-cultured with human K562 cells in 1:1 ratio and assessed as increase in TNF-alpha secretion at 0.625 uM measured by ELISA assay; assay type: functional, Natural killer cell
[18] = Induction of anti-CD3/CD28 antibodies-stimulated human CD8+ T cell activation at 1.11 uM assessed fold increase in CD69 expression measured by flow cytometry analysis; assay type: functional, T cell line
[19] = Induction of anti-CD3/CD28 antibodies-stimulated human T cell activation at 10 uM assessed fold increase in GM-CSF secretion measured by ELISA assay; assay type: functional, T cell line
[20] = Induction of anti-CD3 antibodies-stimulated human CD8+ T cell activation at 1.11 uM assessed fold increase in CD69 expression measured by flow cytometry analysis; assay type: functional, T cell line; note: reference of the scale not given here
[21] = Induction of anti-CD3 antibodies-stimulated human CD8+ T cell activation at 1.11 uM assessed fold increase in cell proliferation measured by flow cytometry analysis; assay type: functional, T cell line; note: reference of the scale not given here
[22] = Induction of anti-CD3 antibodies-stimulated human exhausted T cell activation assessed fold increase in GM-CSF secretion measured by ELISA assay; assay type: functional, T cell line; note: reference of the scale not given here
[23] = Induction of anti-CD3 antibodies-stimulated human T cell activation at 1.11 uM assessed fold increase in IFN-gamma secretion measured by ELISA assay; assay type: functional, T cell line; note: reference of the scale not given here
[24] = Induction of anti-CD3/CD28 antibodies-stimulated human anergic T cell activation at 10 uM assessed fold increase in IFN-gamma secretion measured by ELISA assay; assay type: functional, T cell line
[25] = Induction of activation of human CD56+ CD3- NK cells co-cultured with human K562 cells in 1:1 ratio and assessed as increase in IFN-gamma secretion at 0.625 uM measured by ELISA assay; assay type: functional, Natural killer cell
[26] = Induction of anti-CD3/CD28 antibodies-stimulated human CD4+ T cell activation at 10 uM assessed fold increase in cell proliferation measured by flow cytometry analysis; assay type: functional, T cell line
[27] = Induction of anti-CD3/CD28 antibodies-stimulated human T cell activation at 1 uM assessed fold increase in IL-2 secretion measured by ELISA assay; assay type: functional, T cell line
[28] = Induction of anti-CD3/CD28 antibodies-stimulated human T cell activation at 4 uM assessed fold increase in IL-2 secretion measured by ELISA assay; assay type: functional, T cell line
[29] = Induction of anti-CD3/CD28 antibodies-stimulated human anergic T cell activation at 0.37 uM assessed fold increase in IFN-gamma secretion measured by ELISA assay; assay type: functional, T cell line
[30] = Induction of anti-CD3 antibodies-stimulated human T cell activation at 1.11 uM assessed fold increase in TNF-alpha secretion measured by ELISA assay; assay type: functional, T cell line; note: reference of the scale not given here
[31] = Induction of anti-CD3/CD28 antibodies-stimulated human T cell activation at 1.11 uM assessed fold increase in TNF-alpha secretion measured by ELISA assay; assay type: functional, T cell line
[32] = Induction of anti-CD3 antibodies-stimulated human T cell activation at 1 uM assessed fold increase in IL-2 secretion measured by ELISA assay; assay type: functional, T cell line; note: reference of the scale not given here
[33] = Induction of anti-CD3 antibodies-stimulated human exhausted T cell activation assessed fold increase in IFN-gamma secretion measured by ELISA assay; assay type: functional, T cell line; note: reference of the scale not given here
[34] = Induction of anti-CD3 antibodies-stimulated human CD8+ T cell activation at 10 uM assessed fold increase in cell proliferation measured by flow cytometry analysis; assay type: functional, T cell line; note: reference of the scale not given here
[35] = Induction of anti-CD3/CD28 antibodies-stimulated human T cell activation at 4 uM assessed fold increase in CD25 expression measured by ELISA assay; assay type: functional, T cell line
[36] = Induction of activation of human CD56+ CD3- NK cells co-cultured with human K562 cells in 1:1 ratio and assessed as increase in IFN-gamma secretion at 10 uM measured by ELISA assay; assay type: functional, Natural killer cell
[37] = Induction of anti-CD3/CD28 antibodies-stimulated human CD4+ T cell activation at 10 uM assessed fold increase in CD69 expression measured by flow cytometry analysis; assay type: functional, T cell line
[38] = Induction of anti-CD3 antibodies-stimulated human T cell activation at 10 uM assessed fold increase in TNF-alpha secretion measured by ELISA assay; assay type: functional, T cell line; note: reference of the scale not given here

Q: For `Cc1cc2c(c(C3CC3)n1)CN(c1cccc([C@H](C)Cc3nncn3C)c1)C2=O`, which “fold change (FC)” value [1] is on record?
A: Its value is “<=2”.

Q: And the “fold change (FC)” value [2]?
A: The value was 1.201.

Q: What about the “fold change (FC)” value [3] of the same molecule?
A: The value was “<=2”.

Q: What about the “fold change (FC)” value [4] of the same molecule?
A: Its value is “<=1.5”.

Q: What about the “fold change (FC)” value [5] of the same molecule?
A: The value was “<=1.5”.

Q: What about the “fold change (FC)” value [6] of the same molecule?
A: Its value is 1.51.

Q: What about the “fold change (FC)” value [7] of the same molecule?
A: Its value is “<=1”.

Q: What about the AUC [8] of the same molecule?
A: Its AUC is under 0.5.

Q: And the “fold change (FC)” value [9]?
A: Its value is “<=1.2”.

Q: And the “fold change (FC)” value [10]?
A: Its value is “<=1.4”.

Q: And the “fold change (FC)” value [11]?
A: The value was “<=2”.

Q: What about the “fold change (FC)” value [12] of the same molecule?
A: The value was 1.01.

Q: And the “fold change (FC)” value [13]?
A: Its value is 1.201.

Q: And the “fold change (FC)” value [14]?
A: The value was “<=2.5”.

Q: And the “fold change (FC)” value [15]?
A: The value was 1.201.

Q: And the “fold change (FC)” value [16]?
A: Its value is 1.01.

Q: What about the “fold change (FC)” value [17] of the same molecule?
A: Its value is “<=1”.

Q: And the “fold change (FC)” value [18]?
A: Its value is “<=1.2”.

Q: And the “fold change (FC)” value [19]?
A: Its value is 2.01.

Q: And the “fold change (FC)” value [20]?
A: Its value is “<=1.2”.

Q: And the “fold change (FC)” value [21]?
A: The value was “<=2”.

Q: And the “fold change (FC)” value [22]?
A: The value was “<=1.4”.

Q: What about the “fold change (FC)” value [23] of the same molecule?
A: Its value is “<=2”.

Q: And the “fold change (FC)” value [24]?
A: Its value is 2.51.

Q: What about the “fold change (FC)” value [25] of the same molecule?
A: The value was 1.01.

Q: And the “fold change (FC)” value [26]?
A: Its value is over 4.

Q: What about the “fold change (FC)” value [27] of the same molecule?
A: Its value is 1.01.

Q: What about the “fold change (FC)” value [28] of the same molecule?
A: Its value is 2.51.

Q: What about the “fold change (FC)” value [29] of the same molecule?
A: The value was “<=2.5”.

Q: And the “fold change (FC)” value [30]?
A: The value was “<=1.5”.

Q: What about the “fold change (FC)” value [31] of the same molecule?
A: Its value is “<=1.5”.

Q: What about the “fold change (FC)” value [32] of the same molecule?
A: The value was 0.051.

Q: What about the “fold change (FC)” value [33] of the same molecule?
A: Its value is “<=1.4”.

Q: What about the “fold change (FC)” value [34] of the same molecule?
A: Its value is 2.01.

Q: What about the “fold change (FC)” value [35] of the same molecule?
A: The value was 1.01.

Q: What about the “fold change (FC)” value [36] of the same molecule?
A: The value was 2.01.

Q: What about the “fold change (FC)” value [37] of the same molecule?
A: The value was 1.201.

Q: And the “fold change (FC)” value [38]?
A: Its value is “<=1.5”.
